Experimental data as given in patent US20250215008A1, “PREPARATION AND USE OF QUINAZOLINONE DERIVATIVE AS KINASE INHIBITOR” (Haisco Pharmaceutical Group Co., Ltd., priority 2022, published 2025).
Where two headings read alike, the source gives them in different places.

Assays:
A375 cells = test: A375 cell proliferation inhibition; format: cell-based; details: read-out: IC50/nM, inhibitory activity on A375 cells
Procedure: A375 cells (ATCC, CRL-1619) were cultured in DMEM complete medium (+10% FBS) in a CO2 incubator at 37° C. for 48 h. The cells were trypsinized and counted, and then the density was adjusted to 1.67×10^4 cells/mL. 90 μL (1500 cells) of cells were inoculated into each well of a 96-well transparent bottom plate, and the plate was transferred to a CO2 incubator and the cells were cultured overnight at 37° C. After the cells were incubated overnight, 10 μL of the diluted compound (final concentration starting from 10 μM, 3-fold dilution, 11 concentrations) was added to each well using a multi-channel pipette. The positive control was a serum-free medium containing DMSO. After mixing evenly, the cells were placed in a CO2 incubator at 37° C. for 72 h. After the incubation, the CellCounting-Lite®2.0 kit detection solution (Vazyme, DD1101-03) was taken out and returned to room temperature. 100 μL of CellCounting-Lite2.0 detection solution was added to each well, the plate was sealed with a sealing film, and the plate was placed on a shaker for shaking for 15 min (the whole process should be kept away from light). The Luminescence module of the microplate reader (BMG LRBTECH) was used to detect the fluorescence signal value LUM of each well. The formula
[formula] • was used to calculate the inhibition rate of the compound. The Graphpad software log (inhibitor) vs. response—Variable slope (four parameters) equation was used to perform fitting analysis and calculate the IC50 value of the sample. The ordinate of the data is the percentage of inhibition rate, and the abscissa is the logarithm of the sample concentration (Log10).

[1] = Mouse pharmacokinetic test; format: in vivo, ICR mice; details: for Kp: brain/plasma, read-out: brain/plasma ratio; for Vd: read-out: Vdss
Procedure: (§1) • 1.1 Experimental animals: male ICR mice, 20-25 g, 12 mice/compound, purchased from Chengdu Ddossy Experimental Animals Co., Ltd. • 1.2 Experimental design: on the day of the test, 12 ICR mice were randomly grouped according to their body weights. The animals were fasted with water available for 12 to 14 h one day before the administration and were fed 4 h after the administration.
Before and after administration, 0.06 mL of blood was taken from the orbit under isoflurane anesthesia and placed in an EDTAK2 centrifuge tube for centrifugation at 5000 rpm at 4° C. for 10 min, followed by plasma collection. The blood collection time points for the intravenous administration group and intragastric administration group were 0, 5 min, 15 min, 30 min, 1 h, 2 h, 4 h, 7 h and 24 h. Before analysis and detection, all samples were stored at −80° C., and a quantitative analysis of samples was performed using LC-MS/MS.

[2] = Beagle dog pharmacokinetic test; format: in vivo, beagle dogs; details: for F: beagle dog
Procedure: • Experimental animals: male beagle dogs, about 8-11 kg, 6 beagle dogs/compound, purchased from Beijing Marshall Biotechnology Co., Ltd. • Experimental method: on the day of the experiment, 6 beagle dogs were randomly grouped according to their body weights. The animals were fasted with water available for 12 to 14 h one day before the administration and were fed 4 h after the administration. Administration was performed as per Table 1.
(DMA: dimethylacetamide; Solutol: polyethylene glycol-15-hydroxystearate; Saline: physiological saline; MC: Methylcellulose solution) Before and after the administration, 1 ml of blood was taken from the jugular veins or limb veins, and placed in an EDTAK2 centrifuge tube. Centrifugation was performed at 5000 rpm at 4° C. for 10 min, and plasma was collected. The blood collection time points for the intravenous group and intragastric group were both 0 min, 5 min, 15 min, 30 min, 1 h, 2 h, 4 h, 6 h, 8 h, 10 h, 12 h, 24 h, 48 h, and 72 h. Before analysis and detection, all samples were stored at −80° C. The samples were analyzed quantitatively by LC-MS/MS.

Rat pharmacokinetic test = format: in vivo, SD rats
Procedure: as §1, with “5.1” for “1.1”, “SD rats, about 220” for “ICR mice, 20-25”, “6-8 weeks old, 6 rats/compound,” for “12 mice/compound,”, “5.2” for “1.2”, “experiment, 6 SD rats” for “test, 12 ICR mice”, “weights; the” for “weights. The”
Before and after the administration, 0.1 ml of blood was taken from the orbit of the animals under isoflurane anesthesia and placed in an EDTAK2 centrifuge tube. The blood was centrifuged at 5000 rpm and 4° C. for 10 min to collect plasma. Blood sampling time points for the intravenous administration group: 0, 5 min, 15 min, 30 min, 1 h, 2 h, 4 h, 6 h, 8 h, and 24 h; blood sampling time points for the intragastric administration group: 0, 5 min, 15 min, 30 min, 1 h, 2 h, 4 h, 6 h, 8 h and 24 h. Before analysis and detection, all samples were stored at −80° C.

BCRP = BCRP (Homo sapiens (Human), UniProt Q9UNQ0); details: cited from earlier work
MDR1 = MDR1 (Homo sapiens (Human), UniProt P08183); details: cited from earlier work
[3] = in vivo; cited from earlier work
[4] = male, ICR, po, mouse, i.g. 10 mg/kg
[5] = male, ICR, iv, mouse plasma, i.v. 2.5 mg/kg
[6] = male, ICR, iv, mouse plasma, i.v. 2.5 mg/kg, read-out: AUC0-t
[7] = male, ICR, po, mouse plasma, i.g. 10 mg/kg
[8] = male, ICR, po, mouse plasma, i.g. 10 mg/kg, read-out: AUC0-t
[9] = rat plasma, intragastric administration 10 mg/kg
[10] = rat plasma, intravenous administration 2.5 mg/kg
[11] = beagle dog plasma, i.v. 0.5 mg/kg

BCRP, sequence (Q9UNQ0 whole entry, species assumed): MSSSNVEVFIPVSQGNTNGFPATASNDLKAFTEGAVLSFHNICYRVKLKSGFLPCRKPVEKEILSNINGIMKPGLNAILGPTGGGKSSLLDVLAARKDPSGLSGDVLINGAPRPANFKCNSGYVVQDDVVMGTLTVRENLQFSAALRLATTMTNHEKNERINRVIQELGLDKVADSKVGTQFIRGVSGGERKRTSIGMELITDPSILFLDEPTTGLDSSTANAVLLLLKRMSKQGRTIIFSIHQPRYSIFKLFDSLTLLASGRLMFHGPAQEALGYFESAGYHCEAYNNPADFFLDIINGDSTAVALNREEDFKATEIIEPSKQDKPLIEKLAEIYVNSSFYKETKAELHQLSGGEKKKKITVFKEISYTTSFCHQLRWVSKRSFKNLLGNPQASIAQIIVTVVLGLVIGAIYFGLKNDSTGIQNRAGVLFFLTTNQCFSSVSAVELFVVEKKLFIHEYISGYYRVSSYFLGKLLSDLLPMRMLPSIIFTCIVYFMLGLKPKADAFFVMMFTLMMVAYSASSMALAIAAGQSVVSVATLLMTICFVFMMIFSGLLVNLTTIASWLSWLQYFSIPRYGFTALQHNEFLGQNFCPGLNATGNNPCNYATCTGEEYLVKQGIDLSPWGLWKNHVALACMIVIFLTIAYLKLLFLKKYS
MDR1, sequence (P08183 whole entry, species assumed): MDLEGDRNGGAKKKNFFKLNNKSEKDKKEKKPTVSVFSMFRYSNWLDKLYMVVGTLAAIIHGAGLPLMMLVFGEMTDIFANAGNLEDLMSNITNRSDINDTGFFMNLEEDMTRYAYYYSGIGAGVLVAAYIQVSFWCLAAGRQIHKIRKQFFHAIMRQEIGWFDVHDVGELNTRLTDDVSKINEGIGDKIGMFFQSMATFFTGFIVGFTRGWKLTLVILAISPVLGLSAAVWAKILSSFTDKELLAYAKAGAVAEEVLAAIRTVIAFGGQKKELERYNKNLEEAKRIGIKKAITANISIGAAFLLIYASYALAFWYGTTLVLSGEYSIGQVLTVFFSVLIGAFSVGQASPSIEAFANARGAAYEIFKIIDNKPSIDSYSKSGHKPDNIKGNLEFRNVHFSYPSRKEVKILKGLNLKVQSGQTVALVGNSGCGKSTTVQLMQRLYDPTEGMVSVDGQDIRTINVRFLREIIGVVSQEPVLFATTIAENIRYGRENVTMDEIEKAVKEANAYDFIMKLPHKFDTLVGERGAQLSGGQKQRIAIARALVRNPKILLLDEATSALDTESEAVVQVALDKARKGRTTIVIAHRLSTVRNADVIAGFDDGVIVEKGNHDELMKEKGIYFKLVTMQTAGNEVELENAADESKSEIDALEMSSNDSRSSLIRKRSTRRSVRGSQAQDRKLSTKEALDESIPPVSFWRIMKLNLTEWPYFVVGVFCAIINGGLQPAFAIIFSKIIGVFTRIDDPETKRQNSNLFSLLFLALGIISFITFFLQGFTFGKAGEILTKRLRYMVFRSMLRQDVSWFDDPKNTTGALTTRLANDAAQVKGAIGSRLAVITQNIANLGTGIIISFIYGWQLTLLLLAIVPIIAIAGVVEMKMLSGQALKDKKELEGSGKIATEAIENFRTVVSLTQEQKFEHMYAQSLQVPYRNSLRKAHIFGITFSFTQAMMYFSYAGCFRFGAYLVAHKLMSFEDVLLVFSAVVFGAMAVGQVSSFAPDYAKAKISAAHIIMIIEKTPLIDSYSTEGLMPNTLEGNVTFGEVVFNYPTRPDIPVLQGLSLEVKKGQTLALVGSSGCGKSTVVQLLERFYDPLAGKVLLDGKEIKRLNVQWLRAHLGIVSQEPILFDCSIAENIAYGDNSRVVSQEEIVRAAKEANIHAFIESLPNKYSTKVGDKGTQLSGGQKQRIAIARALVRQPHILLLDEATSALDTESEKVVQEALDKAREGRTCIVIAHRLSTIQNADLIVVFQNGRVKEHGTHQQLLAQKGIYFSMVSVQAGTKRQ

Row | Structure (SMILES) | IC50 (A375 cells; 72 h) [nM] | F ([1]; mouse, i.g. 10 mg/kg) [%] | IC50 (A375 cells; Homo sapiens, A-375, 72 h) [nM] | Kp [1, 4] | clearance [1, 5] [mL/min/kg] | half-life [1, 5] [h] | AUC(0-t) [1, 6] [µg·h/mL] | Vd [1, 5] [L/kg] | half-life [1, 7] [h] | AUC(0-t) [1, 8] [µg·h/mL] | also measured
1 | Cn1cnc2ccc(Oc3c(F)ccc(NS(=O)(=O)N4CCC5CC54)c3C#N)cc2c1=O (centres unmarked) [Compound 17] |  |  | ≤ 10 |  |  |  |  |  |  |  | 
2 | Cn1cnc2ccc(Oc3c(F)ccc(NS(=O)(=O)N4CC(CF)C4)c3C#N)cc2c1=O [Compound 14] |  |  | ≤ 10 |  |  |  |  |  |  |  | 
3 | COn1cnc2ccc(Oc3c(F)ccc(NS(=O)(=O)N4CC5(CCC5)C4)c3C#N)cc2c1=O [Compound 7] |  | 92.6 |  | 0.0425 | 0.144 | 9.79 | 240 | 0.111 | 13.7 | 792 | 
4 | N#Cc1c(NS(=O)(=O)N2CC3(CCC3)C2)ccc(F)c1Oc1ccc2ncn3ccnc3c2c1 [Compound 22] |  |  | ≤ 10 |  |  |  |  |  |  |  | 
5 | Cn1cnc2ccc(Oc3c(F)ccc(NS(=O)(=O)N4CC5(CC5)C4)c3C#N)cc2c1=O [Compound 5] |  | 93.6 | ≤ 10 | 0.0181 | 0.0627 | 30.2 | 290 | 0.159 | 19.2 | 1080 | 
6 | N#Cc1c(NS(=O)(=O)N2CC3(CCC3)C2)ccc(F)c1Oc1ccc2ncn(CC(F)F)c(=O)c2c1 [Compound 10] |  | 83.9 | ≤ 10 | 0.0107 | 0.117 | 12 | 272 | 0.111 | 11.8 | 914 | F ([2]; i.g. 3 mg/kg): 79.7%; clearance ([2]; male, iv, beagle dog plasma, i.v. 0.5 mg/kg): 0.425 mL/min/kg; AUC(0-t) ([2]; male, iv, beagle dog plasma, i.v. 0.5 mg/kg, read-out: AUC0-t): 40.9 µg·h/mL; Vd ([2]; male, iv, beagle dog plasma, i.v. 0.5 mg/kg, read-out: Vdss): 0.155 L/kg; AUC(0-t) ([2]; male, po, beagle dog plasma, i.g. 3 mg/kg, read-out: AUC0-t): 97.8 µg·h/mL
7 | CCCS(=O)(=O)Nc1ccc(F)c(C(=O)c2c[nH]c3ncc(-c4ccc(Cl)cc4)cc23)c1F [Vemurafenib] |  |  |  |  |  |  |  |  |  |  | BCRP efflux ratio (BCRP): 495; MDR1 efflux ratio (MDR1): 83; total brain-to-plasma ratio [3]: 0.004
8 | COn1cnc2ccc(Oc3c(F)ccc(NS(=O)(=O)N4CC[C@@H](F)C4)c3C#N)cc2c1=O [Compound 4] |  |  | ≤ 10 | 0.053 | 0.37 | 5.27 | 107 | 0.147 | 4.02 | 282 | 
9 | COn1cnc2ccc(Oc3c(F)ccc(NS(=O)(=O)N4CC5(CC5)C4)c3C#N)cc2c1=O [Compound 8] |  | ≥98 |  | 0.0173 | 0.147 | 8.59 | 247 | 0.0941 | 12.9 | 1300 | 
10 | N#Cc1c(NS(=O)(=O)N2CC3(CCC3)C2)ccc(F)c1Oc1ccc2ncn(C3COC3)c(=O)c2c1 [Compound 33] | ≤ 10 |  |  |  |  |  |  |  |  |  | 
11 | N#Cc1c(NS(=O)(=O)N2CC3(CCC3)C2)ccc(F)c1Oc1ccc2ncn(CCF)c(=O)c2c1 [Compound 26] |  | 78.1 | ≤ 10 | 0.0179 | 0.119 | 12.8 | 266 | 0.114 | 8.68 | 832 | 

More lines, main results first:

Row | IC50 (A375 cells; 72 h) [nM] | F ([1]; mouse, i.g. 10 mg/kg) [%] | IC50 (A375 cells; Homo sapiens, A-375, 72 h) [nM] | Kp [1, 4] | clearance [1, 5] [mL/min/kg] | half-life [1, 5] [h] | AUC(0-t) [1, 6] [µg·h/mL] | Vd [1, 5] [L/kg] | half-life [1, 7] [h] | AUC(0-t) [1, 8] [µg·h/mL] | Structure (SMILES) | also measured
12 | ≤ 10 |  |  |  |  |  |  |  |  |  | N#Cc1c(NS(=O)(=O)N2CC3(CCC3(F)F)C2)ccc(F)c1Oc1ccc2ncn(CC(F)F)c(=O)c2c1 [Compound 42] | 
13 | ≤ 10 | 87.9 |  |  |  |  |  |  |  |  | Cc1cnc2c3cc(Oc4c(F)ccc(NS(=O)(=O)N5CC6(CCC6)C5)c4C#N)ccc3ncn12 [Compound 44] | AUC(0-t) ([1]; mouse plasma, i.g. 10 mg/kg): 442.783 µg·h/mL; T1/2 ([1]; mouse plasma, i.g. 10 mg/kg): 14.2 h; AUC(0-t) ([1]; mouse plasma, i.v. 2.5 mg/kg): 125.977 µg·h/mL; CL ([1]; mouse plasma, i.v. 2.5 mg/kg): 0.335 mL/min/kg; T1/2 ([1]; mouse plasma, i.v. 2.5 mg/kg): 7.5 h; Vdss ([1]; mouse plasma, i.v. 2.5 mg/kg): 0.135 L/kg; brain/plasma ratio ([1]; mouse, i.g. 10 mg/kg): 0.0162
14 | ≤ 10 |  |  |  |  |  |  |  |  |  | N#Cc1c(NS(=O)(=O)N2CC3(CCC3F)C2)ccc(F)c1Oc1ccc2ncn(CC(F)F)c(=O)c2c1 (single isomer, unassigned) [Compound 40] | 
15 | ≤ 10 |  |  |  |  |  |  |  |  |  | N#Cc1c(NS(=O)(=O)N2CC3(CC3)C2)cc(F)c(F)c1Oc1ccc2ncn(CCF)c(=O)c2c1 [Compound 50] | 
16 | ≤ 10 |  |  |  |  |  |  |  |  |  | N#Cc1c(NS(=O)(=O)N2CC3(CC3)C2)ccc(F)c1Oc1ccc2ncn3ccnc3c2c1 [Compound 49] | 
17 | ≤ 10 |  |  |  |  |  |  |  |  |  | N#Cc1c(NS(=O)(=O)N2CC3(CC3)C2)ccc(F)c1Oc1ccc2ncn(CCF)c(=O)c2c1 [Compound 47] | AUC(0-t) (Rat pharmacokinetic test; [9]): 4256.852 µg·h/mL; T1/2 (Rat pharmacokinetic test; [9]): 60.6 h; AUC(0-t) (Rat pharmacokinetic test; [10]): 1156.844 µg·h/mL; CL (Rat pharmacokinetic test; [10]): 0.036 mL/min/kg; T1/2 (Rat pharmacokinetic test; [10]): 50.9 h; Vdss (Rat pharmacokinetic test; [10]): 0.156 L/kg; F (Rat pharmacokinetic test; rat, intragastric administration 10 mg/kg): 92%
18 | ≤ 10 |  |  |  |  |  |  |  |  |  | N#Cc1c(NS(=O)(=O)N2CC[C@@H](F)C2)cc(F)c(F)c1Oc1ccc2ncn(CCF)c(=O)c2c1 [Compound 51] | 
19 | ≤ 10 |  |  |  |  |  |  |  |  |  | N#Cc1c(NS(=O)(=O)N2CC3(CCC3)C2)cc(F)c(F)c1Oc1ccc2ncn3ccnc3c2c1 [Compound 46] | 
20 | ≤ 10 |  |  |  |  |  |  |  |  |  | N#Cc1c(NS(=O)(=O)N2CC3(CCC3)C2)cc(F)c(F)c1Oc1ccc2ncn(CCF)c(=O)c2c1 [Compound 39] | AUC(0-t) ([2]; beagle dog plasma, i.g. 3 mg/kg): 84.281 µg·h/mL; AUC(0-t) [2, 11]: 31.095 µg·h/mL; CL [2, 11]: 0.541 mL/min/kg; Vdss [2, 11]: 0.08 L/kg; F ([2]; i.g. 3 mg/kg): 90.3%
